Literature values in article PMC12307812 (Nature Communications, 2025).

system: TMPRSS2; design: method as in earlier work; details: top 50 compounds by AUC, Figure 2 source data; cited from earlier work

| SMILES | max response (%) |
| --- | --- |
| Nc1nc2ccc(OC(F)(F)F)cc2s1 [NCGC00015882-15] | -16.2214 |
| N=C(N)c1ccc(OCCCOc2ccc(C(=N)N)cc2Br)c(Br)c1 [NCGC00189076-01] | -77.315 |
| CCCCCCCCCCCCCCCC[n+]1ccccc1.[Br-] [NCGC00091023-06] | -21.1069 |
| O=C(O)CCNC(=O)c1ccc(N=Nc2ccc(O)c(C(=O)O)c2)cc1 [NCGC00164634-02] | -22.1756 |
| C=CCN1CC[C@]23CCCC[C@H]2[C@H]1Cc1ccc(O)cc13 [NCGC00162247-06] | -23.7786 |
| CCC(=O)c1ccc2c(c1)N(CCCN(C)C)c1ccccc1S2.Cl [NCGC00015838-06] | -16.7557 |
| CN(C/C=C/c1ccccc1)Cc1cccc2ccccc12.Cl [NCGC00179332-03] | -15.3589 |
| O=c1c(O)c(-c2ccc(O)c(O)c2)oc2cc(O)cc(O)c12 [NCGC00015870-27] | -35.5344 |
| CC[C@H](C)[C@H]1O[C@]2(C=C[C@@H]1C)C[C@@H]1C[C@@H](C/C=C(\C)[C@@H](O[C@H]3C[C@H](OC)[C@@H](O[C@H]4C[C@H](OC)[C@@H](O)[C@H](C)O4)[C@H](C)O3)[C@@H](C)/C=C/C=C3\CO[C@@H]4[C@H](O)C(C)=C[C@@H](C(=O)O1)[C@]34O)O2 [NCGC00168290-05] | -26.1435 |
| CCOC(=O)Cn1cccc1-c1nc(-c2ccc(OC)cc2)c(-c2ccc(OC)cc2)s1 [NCGC00182996-01] | -15.3817 |
| C=C1CC[C@H](O)C/C1=C\C=C1/CCC[C@]2(C)[C@@H]([C@H](C)/C=C/[C@H](C)C(C)C)CC[C@@H]12 [NCGC00166307-05] | -20.0382 |
| CC(CCc1ccccc1)NC(C)C(O)c1ccc(O)cc1 (stereo not drawn) [NCGC00015716-09] | -20.1145 |
| Cc1ccc(S(=O)(=O)NC(=O)NN2CC3CCCC3C2)cc1 (stereo not drawn) [NCGC00095107-09] | -9.733 |
| Cl.NCC1CCC(C(=O)Oc2ccc(CCC(=O)O)cc2)CC1 (stereo not drawn) [NCGC00164584-03] | -89.9618 |
| CCOC(=O)c1ccc(OC(=O)CCCCCN=C(N)N)cc1.CS(=O)(=O)O [NCGC00025297-04] | -83.626 |
| S=P(N1CC1)(N1CC1)N1CC1 [NCGC00095042-09] | -29.4275 |
| CC=CC1C(C(=O)OCc2c(F)c(F)c(COC)c(F)c2F)C1(C)C (stereo not drawn) [NCGC00319021-01] | -16.0283 |
| C#C[C@]1(O)CC[C@H]2[C@@H]3CCC4=CC(=O)CCC4=C3C=C[C@@]21CC [NCGC00167457-02] | -24.7304 |
| COc1cc(N)c(Cl)cc1C(=O)NC1CCN(Cc2ccccc2)CC1 [NCGC00016951-05] | -0.1908 |
| CCCNCC(O)COc1ccccc1C(=O)CCc1ccccc1 (stereo not drawn) [NCGC00015819-15] | -5.725 |
| C=C1C(=O)O[C@@H]2[C@H]3O[C@]3(C)CC/C=C(/C)CC[C@@H]12 [NCGC00024683-23] | -10.5725 |
| O=C(c1ccc(F)cc1)C1CCN(CCn2c(=O)[nH]c3ccccc3c2=O)CC1 [NCGC00021146-09] | -16.7557 |
| CN[C@H]1C[C@@H](N)[C@H](O)[C@@H](O[C@@H]2O[C@H](CO)[C@H](O)[C@@H]3OC4(O[C@H]23)O[C@H]([C@@H](N)CO)[C@H](O)[C@H](O)[C@H]4O)[C@@H]1O (stereo partly drawn) [NCGC00188433-02] | -14.1688 |
| COc1cc(C)c(Cc2cnc(N)nc2N)cc1OC [NCGC00167523-03] | -8.206 |

| SMILES | max response (%) |
| --- | --- |
| CCCCc1cc2ccccc2c(OCCN(C)C)n1 [NCGC00016618-04] | -11.3359 |
| CC(C(=O)O)c1ccc(C(=O)c2cccs2)cc1 (stereo not drawn) [NCGC00094916-06] | -15.5344 |
| COc1ccc(CN2CCNCC2)c(OC)c1OC [NCGC00016697-04] | -13.9313 |
| N=C(N)c1ccc2cc(OC(=O)c3ccc(N=C(N)N)cc3)ccc2c1 [NCGC00160398-05] | -96.6794 |
| CC(=O)Oc1cccc(O)c1 [NCGC00095054-05] | -8.588 |
| C[C@]12CCC(=O)C=C1CC[C@@H]1[C@@H]2[C@@H](O)C[C@@]2(C)[C@H]1CC[C@]2(O)C(=O)CO [NCGC00022848-17] | -0.7252 |
| CS(=O)(=O)O.C[C@H](N)C(=O)N[C@@H](C)C(=O)NC1[C@H]2CN(c3nc4c(cc3F)c(=O)c(C(=O)O)cn4-c3ccc(F)cc3F)C[C@@H]12 (stereo partly drawn) [NCGC00261969-01] | -25.1766 |
| CN(C)C(=O)COC(=O)Cc1ccc(OC(=O)c2ccc(N=C(N)N)cc2)cc1.CS(=O)(=O)O [NCGC00167526-02] | -95.3053 |
| CC12CCC(CC1=O)C2(C)C (stereo not drawn) [NCGC00090730-03] | -1.87 |
| Clc1cccc(C(c2ccc3nc[nH]c3c2)n2ccnc2)c1 (stereo not drawn) [NCGC00181034-03] | -10.9542 |
| Nc1ncnc2nc[nH]c12 [NCGC00094856-05] | -3.511 |
| CCOC(=O)COc1ccc2c(=O)cc(-c3ccccc3)oc2c1 [NCGC00182622-03] | -10.6731 |
| CC1(C)O[C@@H]2C[C@H]3[C@@H]4CCC5=CC(=O)C=C[C@]5(C)[C@@]4(F)[C@@H](O)C[C@]3(C)[C@]2(C(=O)CO)O1 [NCGC00023193-06] | -22.5573 |
| CN(C(=O)C(Cl)Cl)c1ccc(OC(=O)c2ccco2)cc1 [NCGC00016637-10] | -56.9847 |
| N=C(N)c1ccc(OCCCCCOc2ccc(C(=N)N)cc2)cc1 [NCGC00179034-07] | -64.313 |
| Cc1cc(C)cc(OCC2CNC(=O)O2)c1 (stereo not drawn) [NCGC00095116-05] | -5.458 |
| C=CC[C@@H]1/C=C(\C)C[C@H](C)C[C@H](OC)[C@H]2O[C@@](O)(C(=O)C(=O)N3CCCC[C@H]3C(=O)O[C@H](/C(C)=C/[C@@H]3CC[C@@H](O)[C@H](OC)C3)[C@H](C)[C@@H](O)CC1=O)[C@H](C)C[C@@H]2OC [NCGC00163470-27] | -28.9699 |
| CC(C)N(CCC(C(N)=O)(c1ccccc1)c1ccccn1)C(C)C (stereo not drawn) [NCGC00015358-18] | -7.9771 |
| CC(N)C12CC3CC(CC(C3)C1)C2.Cl (stereo not drawn) [NCGC00159491-04] | -13.9313 |
| CC(=O)Oc1cc(C(C)C)c(OCCN(C)C)cc1C [NCGC00015678-10] | -9.504 |
| Cl.NCCNC(=O)c1ccc(Cl)cn1 [NCGC00167737-02] | -9.8855 |
| O=C1N=C([O-])CN1/N=C/c1ccc(-c2ccc([N+](=O)[O-])cc2)o1.[Na+] [NCGC00024622-05] | -21.3359 |
| O=[N+]([O-])C(Br)(CO)CO [NCGC00164057-03] | -6.336 |
| N=C(N)c1ccc(/C=C/c2ccc(C(=N)N)cc2O)cc1 [NCGC00166289-02] | -82.5214 |
